# “Also recorded” adds a separate entry of the source.
# Legend:
# [1] = test system: 27-month-old C57BL/6 mice; assay: Activity monitoring wheel test (voluntary running wheel activity) in aged mice; assay type: in vivo, mouse; conditions: 27-month-old mice; 0.3 mg/dose PO once daily for 35 days
# Method: (§1) In this study, aged mice were treated with BGE-117 daily for 35 days. Daily voluntary running wheel activity levels, as well as hemoglobin levels at Days 0 and 14, were measured. The effects of the BGE-117 compound were examined for the reversal of frailty in mice.
# The animals were housed with access to voluntary running wheels that wirelessly transmit running data to a computer for analysis. The outcome of interest was the median number of daily wheel rotations generated by mice in each group (n=9 per group), and this is shown as the dots in FIG. 6 (one median number of rotations per day per group) and also as the numbers on the right. […]
# The first day of the study (Study Day 1) started with Animal Acclimation, followed by the BGE-117 treatment start date on Study Day 33 (Phase Day 1). […] For the frailty portion of the study, mice were assessed using an activity monitoring wheel which was monitored passively with a computer monitoring system. […]
# The activity monitoring wheel is a running disk that monitors rotations. […] Activity was monitored passively and wirelessly with a computer monitoring system. Running wheel activity levels were monitored daily. […]
# The wheels were electronically monitored and the number of rotations of the wheel per minute was recorded continuously throughout the entire study.
# aged C57BL/6 mice = assay: Hemoglobin levels in aged mice (Hb assay kit ab234046); assay type: in vivo, mouse; conditions: for Hemoglobin concentration vs vehicle control (FIG. 4B): after 14 days of treatment; for Hemoglobin levels in aged mice, Mean: 27-month-old mice
# Method: as §1
# The BGE-117 compound for the TA-1 treatment group was formulated in 0.5% carboxymethylcellulose (CMC) and 0.5% Tween 80 and constituted at a concentration of 1 mg/ml. The test article for the Control group included 0.5% CMC and 0.5% Tween 80, acting as a vehicle control. Mice were treated with BGE-117 at a concentration of 1 mg/ml at a volume of 300 μl/mouse (0.3 ml/mouse), for 0.3 mg/dose (TA-1); control group mice (TA-2) were administered a vehicle control at a dose volume of 0.3 ml/mouse. Administration was oral, once per day.
# Using a 4 mm lancet, approximately 150 microliters of whole blood was collected from the submental vein, utilizing the submandibular vein as back-up. Blood was collected using 500 microliter Serum Separator tubes and stored at room temperature for 45 minutes or until clotted. Blood was centrifuged at 4000 RPM for 10 minutes in at 4° C. If the serum was not analyzed immediately, the serum was apportioned into 0.5 ml aliquots, stored, and transported at −80° C.
# The following procedure was performed for the hemoglobin assay: • 1. Mouse blood was collected in Li-heparin tubes. • 2. Blood was briefly vortexed and 2 μl of whole blood was transferred into a 96-well clear plate containing 18 μl of distilled water. • 3. 160 μl sample buffer was added to the 96-well clear plate from the Hemoglobin Assay Kit (ab234046). • 4. 20 μl 1N NaOH was added to blood samples to the diluted sample in each well. • 5. The standard curve was established with included hemoglobin standard (ab234046) as per the manufacturer's instruction. • 6. The reaction was incubated at room temperature for 8-15 minutes. Read absorbance at 575 nm in end point mode. • 7. Hb concentration was calculated as recommended by the assay kit.
# [2] = test system: 23-month-old and 27-month old C57BL/6 mice with anemia of inflammation; assay: Hemoglobin in aged mice with anemia of inflammation (elevated TNFα and/or IL-6), BGE-117 study; assay type: in vivo, mouse; conditions: 10 mg/kg PO once daily
# Method: The study included 23-month-old mice (n=39) (23-months old at the start of the experiment, and 24 months old at the end since the experiment lasted 35 days) and 27-month old mice (n=14) (27-months old at the start of the experiment, and 28 months old at the end since the experiment lasted 35 days) from strain C57BL/6 that were administered BGE-117 or vehicle once daily for a duration of […].
# Once the 23 month old mice developed anemia of inflammation at 23-months (±2 weeks), mice were randomly divided into two groups: Anemia of inflammation vehicle-treated Control group 1 (“23-month Control Group” (CG1)) (n=18) and Anemia of inflammation BGE-117-treated group (“BGE-117 23-month Test Group” (BGE-117 TG1)) (n=21), while ensuring that the mean hemoglobin levels and inflammatory cytokine levels remained balanced among the groups.
# Once the 27-month old mice developed anemia of inflammation at 27-months (±2 weeks), mice were randomly divided into two groups: Anemia of inflammation vehicle-treated Control group (“27-month Control Group” (CG2)) (n=8), Anemia of inflammation BGE-117-treated group (“BGE-117 27-month Test Group” (BGE-117 TG2)) (n=6), while ensuring that the mean hemoglobin levels remained balanced among the groups. The mice in the two “Anemia of inflammation” pre-treatment (baseline) groups had high (130% or higher of the median values) TNFα and/or IL-6 as indicated in FIGS. 11-12.
# The 23-month old and 27-month old Test Groups BGE-117 TG1 and BGE-117 TG2 were administered 10 mg/kg of BGE-117 once daily for 5 weeks by oral gavage in 0.5% carboxymethylcellulose (CMC) and 0.5% Tween 80. The 23-month old and 27-month old Control Groups CG1 and CG2 were administered vehicle of 0.5% carboxymethylcellulose (CMC) and 0.5% Tween 80 by oral gavage on the same schedule.
# Blood was collected from the submandibular vein at the start of the study immediately before drug administration, and after 14 days of drug administration. The blood samples was mixed with EDTA and analyzed using the Hemoglobin assay kit from Abcam (ab234046) with modification. The signal was read on Molecular Device SpectraMax 340PC-384. The inflammatory markers were measured by Luminex Mouse Magnetic Assay (5-PLEX, LXSAMSM-05 by R&D Systems) on Luminex 200. At day 35 post drug initiation the mice were anesthetized with isoflurane and blood samples were collected from abdominal vein.
# [3] = test system: patients over 65 years of age with UAA; assay: Phase 2a, 12-week, randomized, double-blind, placebo-controlled study in Unexplained Anemia of Aging (UAA); assay type: in vivo, human; conditions: elderly UAA subjects; 4-24 mg once daily, 12 weeks
# Source text: Study Title: A Phase 2a, 12-Week, Randomized, Double-Blind, Placebo-Controlled, Multi-Center Study to Evaluate Efficacy and Safety of BGE-117 in the Treatment of Unexplained Anemia of Aging (UAA)
# This is a Phase II, randomized, double-blind, placebo-controlled multi-center study to compare the safety of BGE-117 when administered in patients over 65 years of age for 12 weeks. The study consists of 3 periods: Screening, Treatment, and Follow-up. FIG. 16 provides a summary of the study design.
# The study size for this study is 160 evaluable subjects (80 subjects randomized to BGE-117 and 80 subjects randomized to placebo). The subject's maximum duration of participation is approximately 154 days. This includes 6 weeks for the Screening Period, 12 weeks for the Treatment Period, and 4 weeks for the Follow-up Period.
# Subjects are advised to take IP with water once a day, recommended that the subject take the study medication 1 hour before their morning meal, starting on Visit 3 (Day 1), for 84 consecutive days, through Visit 15 (Day 85). Capsules are taken whole, not crushed, chewed, or cut.
# This study is a double-blind, placebo-controlled study. Subjects are randomized to receive either of the following: • BGE-117: a hypoxia inducible factor-prolyl hydroxylase (HIF-PHD) inhibitor in 4 mg and 12 mg capsules; or • Placebo: matching capsule without active drug • The starting dose and maximum dose for BGE-117/placebo is based on a subject's screening renal function results: • The starting dose for subjects with an estimated glomerular filtration rate (eGFR) ≥60 mL/min/1.73 m2 is 12 mg/placebo. The maximum dose is 24 mg/placebo. • The starting dose for subjects with an eGFR between ≥30 and <60 mL/min/1.73 m^2is 4 mg/placebo. The maximum dose is 16 mg/placebo.
# From Visits 5 through 11 (Days 15 through 57), dose adjustment opportunities are scheduled approximately every 14 days to achieve and maintain Hb within the target range. Dose adjustments are based on the local laboratory's results, with the goal of titrating Hb levels to a range of ≥12.0 to ≤13.0 g/dL. In the event of excessively rapid Hb increases or unacceptably high Hb levels or trends, in the investigator's opinion, the dose may be adjusted at any time, even on visits without a dose adjustment review.
# • Improvement in Hb at Visit 15 (Day 85/EOTP) compared to baseline
# • Improvement in FACIT-Fatigue Score at Visit 15 (Day 85/EOTP) compared to baseline
# • Change in Hb at Visits 7, and 11 (Days 29, and 57) and Follow-up Visit compared to baseline • Improvement in FACIT-Fatigue score at Visits 7 and 11 (Day 29 and 57) and the Follow-up Visit compared to baseline • Change in SPPB Score at Visits 7, 11, and 15 (Day 29, 57, and 85), and Follow-up Visit compared to baseline • Change in 6MWT Distance at Visits 7, 11, and 15 (Days 29, 57, and 85) and the Follow-up Visit compared to baseline • Change in SF-36 at Visits 7, 11, and 15 (Days 29, 57, and 85) and the Follow-up Visit compared to baseline • Evaluate the starting dose of BGE-117 in the treatment of UAA for subjects with eGFR ≥60 mL/min/1.73 m^2 and subjects with eGFR ≥30 and <60 mL/min/1.73 m^2
# Change in Hb is the primary endpoint and is a direct assessment of the disease of unexplained anemia in aging patients. Changes in FACIT-Fatigue is the key secondary endpoint. Analysis of both of these endpoints is an ANCOVA with baseline covariates. Testing for FACIT-Fatigue is done only after achieving statistical significance for the change in Hb.
# [4] = test system: HIF prolyl hydroxylase (PHD) 1/2/3; conditions: cited from earlier work
# [5] = test system: patients with chronic kidney disease and normal healthy human volunteers; conditions: patients with chronic kidney disease and normal healthy human volunteers (Shinfuku et al. 2018); cited from earlier work
# 5/6 nephrectomized rats = 5/6 nephrectomized rats (Kato et al. 2019); cited from earlier work
smiles,measurement,setting,value
"O=C(O)CNC(=O)C1=C(O)CCN(Cc2ccc(Oc3ccc(Cl)cc3)nc2)C1=O [BGE-117, N-[(1{[6-(4-chlorophenoxy)-3-pyridinyl]methyl}-4-hydroxy-2-oxo-1,2,5,6-tetrahydro-3-pyridinyl)carbonyl]glycine]",Voluntary running wheel activity (median daily wheel rotations) vs age-matched controls,[1],statistically significant (p<0.001) increase in voluntary activity; also recorded: significantly increased activity
same,Hemoglobin concentration vs vehicle control (FIG. 4B),aged C57BL/6 mice; 23-month old mice,significant increase of hemoglobin levels
same,Hemoglobin concentration vs vehicle control (FIG. 4B),aged C57BL/6 mice; 27-month old mice,significant increase of hemoglobin levels
same,"Hemoglobin levels in aged mice, Mean","aged C57BL/6 mice; Week 0 (before treatment), BGE-117 group",10.98 g/dL
same,"Hemoglobin levels in aged mice, Mean","aged C57BL/6 mice; Week 2, 0.3 mg/dose PO once daily",19 g/dL
same,Hb levels of Test Groups vs Control Groups administered vehicle alone,[2]; 23-month old and 27-month old Test Groups,significantly increased Hb levels
same,Hemoglobin levels before vs after treatment (FIG. 9B),"[2]; 23-month-old mice with elevated TNFα, after two weeks",significant increases in hemoglobin levels
same,Hemoglobin levels before vs after treatment (FIG. 10B),"[2]; 23 month old mice with elevated IL-6, after two weeks",Highly significant improvements in hemoglobin levels
same,Hemoglobin levels before vs after treatment (FIG. 12B),"[2]; 27-month old mice with elevated IL-6, after two weeks",Significant improvements in hemoglobin levels
same,Hemoglobin levels before vs after treatment (FIG. 11B),"[2]; 27-month-old mice with elevated TNFα, after two weeks",Significant improvements in hemoglobin levels
same,Activity levels and sleep quality compared to baseline,[3],Improve activity levels and sleep quality
same,Fatigue (FACIT-Fatigue Score) compared to baseline,[3],Reduce fatigue
same,Hemoglobin levels compared to baseline,[3],Increase hemoglobin levels
same,"Oxygen delivery, mobility, QOL, and energy levels",[3],"Improve oxygen delivery, mobility, QOL, and energy levels"
same,"Physical activity (SPPB scores, 6MWT, grip strength test) compared to baseline",[3],Improve physical activity
same,"HIF prolyl hydroxylase inhibition, type",[4],competitive HIF prolyl hydroxylase (PHD) 1/2/3 pan-inhibitor
same,EPO production,[5],increase EPO production
same,Hemoglobin levels,5/6 nephrectomized rats,increase hemoglobin levels

# From patent US20210353612A1, “HYPOXIA-INDUCIBLE FACTOR PROLYL HYDROXYLASE INHIBITORS FOR TREATING AGING-RELATED CONDITIONS” (BioAge Labs, Inc., priority 2020, published 2021)
